Measurements reported in patent US20190298666A1, “PROMOTION OF T LYMPHOCYTE PROLIFERATION” (Regents of the University of Minnesota, priority 2018, published 2019).

Assays:
[1] = system: breast cancer cell lines and established mouse mammary tumors; conditions: cited from earlier work
[2] = rodents; cited from earlier work
[3] = system: CD8+ T lymphocytes; assay: T cell proliferation, mouse splenocytes with anti-CD3 and anti-CD28 antibodies, flow cytometry; assay type: cell-based, C57BL/6J mouse
Experimental: (§1) FIGS. 1A-B. Freshly harvested C57BL/6 splenocytes were seeded at 80,000 cells/well in a 96-well plate coated with anti-mouse CD3 (10 ug/ml) and anti-mouse CD28 (1 ug/ml) antibodies. After 24 hour incubation with HBB (0-50 uM), cells were then labeled with anti-mouse CD4-eFlour450, anti-mouse CD8 FITC and anti-mouse Thy1.2 APC-eFluor780 antibodies and analyzed by a flowcytometer. Thy1.2 positive single lymphocytes were gated as T cells and CD4 positive and CD8 positive cells were counted. FIG. 1A. Results are expressed as mean±S.D. (n=6). FIG. 1B. MCF-7 breast cancer cells were incubated in the same concentration range of HBB, also for 24 hours. MTT assay of cell numbers.
(§2) FIG. 4. Freshly harvested C57BL/6 splenocytes were seeded at 80,000 cells/well in a 96-well plate coated with anti-mouse CD3 (10 ug/ml) and anti-mouse CD28 (1 ug/ml) antibodies. After 24 hour incubation with metformin (0-10 mM), cells were then labeled with anti-mouse CD4-eFlour450, anti-mouse CD8 FITC and anti-mouse Thy1.2 APC-eFluor780 antibodies and analyzed by a flowcytometer. Thy1.2 positive single lymphocytes were gated as T cells and CD4 positive and CD8 positive cells were counted.
(§3) HBB effects on T cell growth were tested across a range of concentrations (0 to 50 uM). C57BL/6J mouse splenocytes were incubated with or without biguanides in the presence of anti-mouse CD3 and anti-mouse CD28 antibodies. After 24 hours, cells were labeled with fluorescently tagged antibodies to mouse Thy-1, CD4, CD8, CD25, CD44, CD62L and CD73 surface antigens and T cell subsets were analyzed by flow cytometry.

[4] = system: CD4+ T lymphocytes; assay: as above; assay type: cell-based, C57BL/6J mouse
Experimental: as §1, §2, §3

[5] = system: CD4+ and CD8+ T lymphocytes; assay: T cell growth/proliferation, mouse splenocytes with anti-CD3 and anti-CD28 antibodies, flow cytometry; assay type: cell-based, C57BL/6J mouse
Experimental: as §1, §2, §3

[6] = system: Naive, non-Treg CD4 T cells; assay: iTreg differentiation; assay type: cell-based; conditions: IL2 and TGFb, 3 days
Experimental: Naive, non-Treg CD4 T cells were first isolated (these are isolated by magnetic depletion on CD8, CD11b, CD11c, CD19, CD24, CD25, CD44, CD49b, CD105, MHC-II, Gr1, Ter119, B220, TCRg/d). These cells were stimulated with plate bound anti-CD3/CD28 (plates were coated with 5 ug/mL for 2 hours at 37° C.) and given 100 U/mL IL2, 5 ng/mL TGFb and an additional 1 ug/mL anti-Cd28 in cRPMI. After 3 days the cells were stained for CD4, CD8 and CD25 with FOXP3 being on the GFP reporter. Tregs are defined here as CD25+FOXP3+. For this assay, 300,000 cells were plated per well in a 24 well plate.

[7] = molecular target: T1, CYP3A4 (Homo sapiens, UniProt P08684); conditions: compared with metformin; cited from earlier work
[8] = system: CD4+CD25+FOXP3- progenitor cells; assay: TRP conversion assay (IL2-dependent conversion into Tregs); assay type: cell-based; conditions: 1 U/mL IL2, 3 days
Source text: (§4) Each TRP (CD4+CD25+FOXP3- or CD4+CD25−FOXP3+) population was isolated by FACS and stimulated with 1 U/mL IL2 (in complete RPMI) for 3 days then analyzed for upregulation of CD25 and FOXP3 (by GFP reporter).

[9] = system: CD4+CD25−FOXP3+ progenitor cells; assay: as above; assay type: cell-based; conditions: 1 U/mL IL2, 3 days
Source text: as §4

[10] = system: MCF-7 breast cancer cells; assay: MTT assay of cell numbers, MCF-7; assay type: cell-based; conditions: 0-50 uM, 24 hours, concentrations that induce CD4 and CD8 T cell growth
Experimental: as §1

[11] = molecular target: T1, CYP3A4; conditions: cited from earlier work

T1 sequence (P08684 whole entry): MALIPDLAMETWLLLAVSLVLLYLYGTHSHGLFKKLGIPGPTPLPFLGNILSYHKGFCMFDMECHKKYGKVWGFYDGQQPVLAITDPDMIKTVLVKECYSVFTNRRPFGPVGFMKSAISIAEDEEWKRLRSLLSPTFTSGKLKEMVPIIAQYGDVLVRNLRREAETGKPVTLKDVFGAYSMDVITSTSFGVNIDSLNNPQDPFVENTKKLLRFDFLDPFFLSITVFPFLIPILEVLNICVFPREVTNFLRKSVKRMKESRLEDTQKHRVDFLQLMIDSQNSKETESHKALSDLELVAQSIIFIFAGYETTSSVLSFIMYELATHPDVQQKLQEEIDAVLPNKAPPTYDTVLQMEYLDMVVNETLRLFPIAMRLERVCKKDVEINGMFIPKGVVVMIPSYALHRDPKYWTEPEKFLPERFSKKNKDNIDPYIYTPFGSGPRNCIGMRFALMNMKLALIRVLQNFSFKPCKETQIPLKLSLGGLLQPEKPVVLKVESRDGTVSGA

CN(C)C(=N)N=C(N)N [metformin, reference compound]
concentration range of activity against breast cancer cells [1]: ~5 mM | maximum tissue concentrations [2]: about 500 microM | increase of CD8+ T cells ([3]; 10 mM): 14% | increase of CD4+ T cells ([4]; 10 mM): 30% | proliferation-inducing activity for T cells ([5]; concentrations below 5 mM): failed to show proliferation-inducing activity | concentrations causing an increase of CD4+ and CD8+ T lymphocytes ([5]; metformin, 24 hours, FIG. 4): > 5 mM

CCCCCCNC(=N)NC(=N)NCc1ccccc1 [HBB, N1-hexyl-N5-benzyl biguanide]
concentration range of activity against breast cancer cells [1]: ~0.02 mM | IC50 ([1]; read-out: IC50, OCR and growth inhibition): 3 to 30 µM | FOXP3 and CD25 expression of the Treg cells generated [6]: expressed less FOXP3 and CD25 | differentiation of naive T cells into Tregs [6]: inhibits | affinity for the CYP3A4 heme [7]: higher affinity than metformin | IL2-dependent conversion into Tregs [8]: blocks | IL2-dependent conversion into Tregs [9]: blocks | growth of MCF-7 breast cancer cells [10]: inhibit growth | proliferation of CD8+ T lymphocytes ([3]; 6 to 12 uM, P<0.05): 1.6 fold | increase of CD8+ T cells ([3]; 6 to 12 microM): 60% | effectiveness for expansion of CD8+ T cells ex vivo relative to metformin ([3]; at 1000-fold lower concentration than metformin): 5 fold | proliferation of CD4+ T lymphocytes ([4]; 6 to 12 uM, P<0.05): 1.9 fold | increase of CD4+ T cells ([4]; 6 to 12 microM): 90% | effectiveness for expansion of CD4+ T cells ex vivo relative to metformin ([4]; at 1000-fold lower concentration): 3 fold | greater potency for T cell effects relative to metformin [5]: 1000 fold | T cell growth at low concentrations ([5]; 0.09 to 1.5 uM, 24 hours): did not inhibit | inhibition of CYP3A4 AA epoxygenase activity [11]: potently and specifically inhibits
